From patent publication US20050256081A1, “Tetracycline derivatives for the treatment of ocular pathologies” (priority 2004, published 2005)
Values joined by “and” are separate entries in the source; they are usually repeats but may differ in a detail not shown here. Equal values may be shown once.

Experiments:
[1] = test system: corneal neovascularization; assay: Silver nitrate cauterization corneal neovascularization model, single agents (Example 5); format: in vivo, Long Evans pigmented rats; conditions: for NV area compared to the control group (statistical significance): GLM with Tukey's studentized range test, significance at p≦0.05; for neovascularization on digitally enhanced slit lamp photograph: seven days after induction of corneal burn, FIG. 11; for Percent Area Of Neovascularization Mean ± SD: topical two times daily for 7 days, 7th day, ascomycin 50 μg/ml, flurbiprofen 0.03%, doxycycline 20 mg/ml, LMWH 10 mg/ml, triamcinolone acetonide 4 mg/ml
[2] = test system: corneal neovascularization; assay: Silver nitrate cauterization corneal neovascularization model, two drug combinations (Example 3); format: in vivo, Long Evans rats; conditions: for effect on corneal neovascularization, individual agents: flurbiprofen 0.03% w/v, LMWH 10 mg/ml, administered as individual agents, data not shown
Source text: Artificial corneal burns were induced in thirty-two eyes belonging to thirty-two Long Evans rats to determine the effects of doxycycline or another tetracycline derivative and low molecular weight heparin, doxycycline or another tetracycline derivative, and flurbiprofen, or flurbiprofen and low molecular weight heparin, on corneal neovascularization. All the eyes were examined to exclude any eyes with corneal scars and/or neovascularization prior to induction.
(§1) Neovascularization was induced in all eyes using silver nitrate cauterization. The animals were first anesthetized by intraperitoneal injection of a mixture of ketamine hydrochloride (25 mg/kg) with xylazine hydrochloride (5 mg/kg). The cornea was then anesthetized by a drop of 0.5% proparacaine and allowed to dry.
Group 1 (number of animals, n=8) received a 1:1 combination of 0.03% flurbiprofen sodium ophthalmic solution (Allergan, Irvine CA) and 10 mg/ml low molecular weight heparin (Enoxaparin, Aventis Pharmaceuticals Inc., Bridgewater N.J.); an actual concentration of 0.015% flurbiprofen with 5 mg/ml low molecular weight heparin. […] Group 3 (n=8) received a 1:1 combination of 20 mg/ml doxycycline and 10 mg/ml low molecular weight heparin; an actual concentration of 10 mg/ml doxycycline with 5 mg/ml low molecular weight heparin. Group 4 (n=8) received balanced salt solution (control). The drops were applied topically immediately after cauterization; treatments were administered two times per day for seven days.
(§2) The presence of new vessels (neovascularization) and the extent of new vessel formation was assessed by slit lamp photography and histology. Inhibition of vessel proliferation was evaluated by measuring vessel progression from the outer cornea (corneal limbus) into the comea. As previously described, it will be appreciated that any reduction of new vessel proliferation and/or regression of existing vessels is therapeutic, and that complete inhibition and/or regression is not required, and also that reduction includes regression of existing vessels.
The extent of corneal neovascularization was determined by slit lamp microscopy with photography (SL-7E, Topcon, Tokyo Japan) on day seven after cauterization. The animals were euthanized in a carbon dioxide chamber under deep general anesthesia. […]
Corneal neovascularization was assessed by scanning (Cano scan 9900F, Canon, Tokyo Japan) the slit lamp photographs into high resolution digital images. […] The percentage area of the cornea covered by the corneal scar in each eye was also determined. […]
Statistical analysis was performed using Statistical Analysis System (SPSS 11.5) software. The difference between the groups was determined using Mann-Whitney U Analysis test; a p value less than 0.05 was considered significant.

[3] = test system: corneal neovascularization; assay: Silver nitrate cauterization corneal neovascularization model, doxycycline concentrations and pH (Example 4); format: in vivo, Long Evans pigmented rats; conditions: for Percent area of neovascularization (Mean ± SD): topical two times per day for seven days, n=6, monohydrate
Source text: Thirty-six eyes belonging to thirty-six male Long Evans pigmented rats (200 g to 250 g) were divided into […] groups. Treated eyes were topically administered doxycycline at the following concentrations and having the indicated pH values: 0.05%^w/v (pH 3.3), 0.1%^w/v (pH 3.1), 1%^w/v (pH 2.3), 2%^w/v (pH 2.1), 2%^w/v (adjusted to pH of 7.4). One eye of each animal served as a treated eye and the other eye served as a non-treated control eye. Artificial corneal bums were induced. All the eyes were examined to exclude any eyes with corneal scars and/or neovascularization prior to induction.
as §1
as §2, with “cornea.” for “comea.”, “indudes” for “includes”
Neovascularization was evaluated by an examiner who was blinded as to the treatment groups to minimize the observer bias.
The animals were euthanized in a carbon dioxide chamber under deep general anesthesia. The eyes were enucleated and fixed in 10% formaldehyde.
Corneal neovascularization was assessed by scanning (Cano scan 9900F, Canon, Tokyo Japan) the slit lamp photographs into high resolution digital images. […] The percentage area of the cornea covered by the corneal scar in each eye was also determined. A drawing of corneal blood vessels was made to compare with digital photos and ensure that no vascular area was omitted during calculation of percent area.
Statistical analyses were performed using each animal as an experimental unit with Statistical Analysis System (SPSS 11.5) software. Kruscal-Vallis and Mann-Whitney U Analysis was conducted and treatment means were separated at p<0.05 with least significant difference (LSD) test. A p value <0.05 was considered significant.
For histopathologic evaluation, sedated animals were euthanized with inhaled CO2 and enucleation was performed immediately. […] The eyes were prepared for histological examination using 10% formaldehyde. […] The corneas were then soaked in xylene and paraffin, and later embedded in paraffin and cut at […] for staining with hematoxylin and eosin (H&E) for light microscopy.
Light microscopic examination was performed on every microscopic section.

[4] = test system: corneal neovascularization; assay: Inhibition of corneal neovascularization after silver nitrate/potassium nitrate corneal burn, graded by slit lamp photography and histology (Example 1); format: in vivo, rat; conditions: agent alone, topically applied twice a day; doxycycline about 1 to about 20 mg/ml, low molecular weight heparin about 10 mg/ml, triamcinolone about 4 mg/ml; compared to controls
Experimental: Artificial corneal burns were induced in rat eyes to determine the effects of doxycycline, steroids, and low molecular weight heparin, alone and in combinations, on corneal neovascularization.
The presence of new vessels (neovascularization) and the extent of new vessel formation was assessed by split lamp photography and histology. Inhibition of vessel proliferation was evaluated by measuring vessel progression from the outer cornea (corneal limbus) into the cornea. A numerical rating system was used to quantitate the degree of inhibition (+, ++, and +++ inhibition), with “+ inhibition” indicating inhibition one-third of the distance from the limbus of the cornea to the center; “++ inhibition” indicating inhibition two-thirds of the distance from the limbus to the center; “+++ inhibition” indicating complete inhibition of vessels between the limbus and the center; and the designation “± inhibition” indicating an intermediate degree of inhibition (e.g, less than +, ++, or +++) .

CC(C(=O)[O-])c1ccc(-c2ccccc2)c(F)c1.O.O.[Na+] (racemic) [flurbiprofen, sodium (±)-2-(2-fluoro-4-biphenylyl)-propionate dihydrate]
NV area compared to the control group (statistical significance) [1]: no statistically significant differences | neovascularization on digitally enhanced slit lamp photograph [1]: neovascularization is quite prominent | Percent Area Of Neovascularization Mean ± SD ([1]; dihydrate): 50.5%±18.7% | Percent Area Of Neovascularization Mean ± SD ([1]; listed as Flurbiprofen, dihydrate): 50.6 ± 18.7% | effect on corneal neovascularization, individual agents [2]: did not significantly decrease corneal neovascularization

CC[C@@H]1/C=C(\C)C[C@H](C)C[C@H](OC)[C@H]2O[C@@](O)(C(=O)C(=O)N3CCCC[C@H]3C(=O)O[C@H](/C(C)=C/[C@@H]3CC[C@@H](O)[C@H](OC)C3)[C@H](C)[C@@H](O)CC1=O)[C@H](C)C[C@@H]2OC [ascomycin]
NV area compared to the control group (statistical significance) [1]: no statistically significant differences | Percent Area Of Neovascularization Mean ± SD [1]: 56.0%±22.4% | Percent Area Of Neovascularization Mean ± SD ([1]; listed as Ascomycin): 56.0 ± 22.4%

CC1c2cccc(O)c2C(=O)C2=C(O)C3(O)C(=O)C(C(N)=O)=C(O)C(N(C)C)C3C(O)C21.O (centres unmarked) [doxycycline, 4-(dimethylamino)-1,4,4a,5,5a,6,11,12a-octahydro3,5,10,12,12a-pentahydroxy-6-methyl-1,11-dioxo-2-naphthacenecarboxamide monohydrate]
histology (H&E), new vessels and inflammatory cells ([3]; 0.05% doxycycline, FIG. 8A): new vessels and inflammatory cells through the entire corneal stroma | Percent area of neovascularization (Mean ± SD) ([3]; 0.05% w/v doxycycline, pH 3.3, listed as Doxycycline): 69.83 ± 17.98% | Percent area of neovascularization (Mean ± SD) ([3]; 0.05% w/v doxycycline, pH 3.3): 69.8±17.9% | histology (H&E), new vessels and inflammatory cells ([3]; 0.1% doxycycline, FIG. 8B): new vessels and inflammatory cells through the entire corneal stroma | Percent area of neovascularization (Mean ± SD) ([3]; 0.1% w/v doxycycline, pH 3.1, listed as Doxycycline): 64.48 ± 14.04% | Percent area of neovascularization (Mean ± SD) ([3]; 0.1% w/v doxycycline, pH 3.1): 64.5±14.0% | histology (H&E), new vessels and inflammatory cells ([3]; 1% doxycycline, FIG. 8C): inflammatory cells and there was neovascularization in the stroma far from the corneal burn | Percent area of neovascularization (Mean ± SD) ([3]; 1% w/v doxycycline, pH 2.3, listed as Doxycycline): 56.35 ± 20.84% | Percent area of neovascularization (Mean ± SD) ([3]; 1% w/v doxycycline, pH 2.3): 56.3±20.8% | histology (H&E), new vessels and inflammatory cells ([3]; 2% doxycycline adjusted to a substantially neutral pH, FIG. 8E): fewer inflammatory cells and less neovascularization in the stroma than eyes administered 1% doxycycline | histology (H&E), new vessels and inflammatory cells ([3]; 2% doxycycline not pH adjusted, FIG. 8D): fewer inflammatory cells and less neovascularization in the stroma than eyes administered 1% doxycycline | mean percentage area of neovascularization, 2% doxycycline pH neutralized compared with 2% doxycycline not adjusted for pH ([3]; 2% doxycycline, pH neutralized): significantly less | Percent area of neovascularization (Mean ± SD) ([3]; 2% w/v doxycycline adjusted to pH 7.4, listed as Doxycycline): 36.2 ± 4.3% | Percent area of neovascularization (Mean ± SD) ([3]; 2% w/v doxycycline adjusted to pH 7.4): 36.2±4.3% | Percent area of neovascularization (Mean ± SD) ([3]; 2% w/v doxycycline, pH 2.1 (not adjusted for pH), listed as Doxycycline): 54.78 ± 5.95% | Percent area of neovascularization (Mean ± SD) ([3]; 2% w/v doxycycline, pH 2.1 (not adjusted for pH)): 54.7±5.9% | NV area compared to the control group (statistical significance) [1]: significant reduction | neovascularization on digitally enhanced slit lamp photograph [1]: neovascularization is less prominent than in control group | Percent Area Of Neovascularization Mean ± SD ([1]; listed as Doxycycline, monohydrate): 35.5 ± 29.1% | Percent Area Of Neovascularization Mean ± SD ([1]; monohydrate): 35.5%±29.1% | effect on corneal neovascularization, individual agent ([2]; doxycycline administered at 10 mg/ml): not when administered at 10 mg/ml | effect on corneal neovascularization, individual agent ([2]; doxycycline administered at 20 mg/ml): did significantly inhibit | inhibition of neovascularization [4]: +

low molecular weight heparin
NV area compared to the control group (statistical significance) [1]: no statistically significant differences | Percent Area Of Neovascularization Mean ± SD [1]: 66.7%±9.9% and 66.7 ± 9.9% | effect on corneal neovascularization, individual agents [2]: did not significantly decrease corneal neovascularization | inhibition of neovascularization [4]: +
